Measurements taken from ChEMBL document CHEMBL1201862, “PubChem BioAssay data set” (2004).
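Assay format: 96-well plates, 48-hour exposure. GI50 marks 50% less growth.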 The source made the active and inactive calls. Cut-off read from the data, not from the text of the source: active = GI50 up to about 1.1 µM and inactive = higher.

Legend:
Test in all cases: inhibition of tumour cell growth, NCI panel, 48 h
BT-549 = test system: BT-549
IGROV-1 = test system: IGROV-1
OVCAR-4 = test system: OVCAR-4
SNB-19 = test system: SNB-19
Hs-578T = test system: Hs-578T
HOP-92 = test system: HOP-92
MDA-MB-231 = test system: MDA-MB-231
SF-295 = test system: SF-295
HCC 2998 = test system: HCC 2998
RPMI-8226 = test system: RPMI-8226
786-0 = test system: 786-0
M14 = test system: M14
NCI-H460 = test system: NCI-H460
TK-10 = test system: TK-10
U-251 = test system: U-251
SR = test system: SR
SNB-75 = test system: SNB-75
A549 = test system: A549
RXF 393 = test system: RXF 393
EKVX = test system: EKVX

Measured: GI50

COc1ccc(NC2=NCCO2)c2c1CCCC2
inactive: BT-549 30.2 µM | IGROV-1 22.8 µM | OVCAR-4 58.7 µM | SNB-19 39.4 µM | Hs-578T 25.9 µM | HOP-92 19.8 µM | MDA-MB-231 43.8 µM | SF-295 27.3 µM | HCC 2998 31.9 µM | RPMI-8226 24.6 µM | 786-0 93.5 µM | M14 29.2 µM | NCI-H460 34.5 µM | TK-10 51.3 µM | U-251 25.8 µM | SR 29.2 µM | SNB-75 27.3 µM | A549 40.7 µM | RXF 393 21.4 µM | EKVX 47.8 µM

COc1ccc(OC)c([N+](=O)[O-])c1-c1nc2sc(C)c(C)n2c1/C=N/N=C(N)N
inactive: BT-549 25.9 µM | IGROV-1 27.3 µM | OVCAR-4 95.7 µM | SNB-19 36.3 µM | Hs-578T 48.3 µM | HOP-92 61 µM | MDA-MB-231 76.7 µM | SF-295 84.1 µM | HCC 2998 46.3 µM | RPMI-8226 32.4 µM | 786-0 > 100 µM | M14 76.7 µM | NCI-H460 91.6 µM | TK-10 > 100 µM | U-251 49.7 µM | SR 62.4 µM | A549 > 100 µM | RXF 393 > 100 µM | EKVX > 100 µM

COc1ccc2c(c1)CCc1[nH]c3ccccc3c1CCCC2
inactive: BT-549 > 10 µM | IGROV-1 > 10 µM | OVCAR-4 > 10 µM | SNB-19 > 10 µM | Hs-578T > 10 µM | HOP-92 > 10 µM | MDA-MB-231 > 10 µM | SF-295 > 10 µM | HCC 2998 > 10 µM | RPMI-8226 > 10 µM | 786-0 > 10 µM | M14 > 10 µM | TK-10 > 10 µM | U-251 > 10 µM | SR > 10 µM | SNB-75 > 10 µM | A549 > 10 µM

COc1ccc(-c2[nH]c(-c3ccc(OC)cc3)c(-c3ccccn3)c2-c2ccccn2)cc1
inactive: BT-549 36.2 µM | IGROV-1 71.8 µM | SNB-19 68.7 µM | Hs-578T > 100 µM | HOP-92 > 100 µM | MDA-MB-231 89.3 µM | SF-295 38.2 µM | HCC 2998 13.6 µM | RPMI-8226 20.2 µM | 786-0 > 100 µM | M14 48.1 µM | NCI-H460 31.8 µM | TK-10 > 100 µM | U-251 43.8 µM | SR 34.6 µM | SNB-75 31.2 µM | A549 40.8 µM | RXF 393 31.3 µM | EKVX 72.3 µM

C[C@H]1CC[C@H]([C@@H](C)[C@H]2[C@@H](O)C[C@H]3[C@@H]4CC[C@H]5C[C@@H](O)CC[C@]5(C)[C@H]4CC[C@]23C)NC1
inactive: BT-549 17.5 µM | IGROV-1 19.2 µM | OVCAR-4 15.8 µM | SNB-19 23.5 µM | Hs-578T 27.1 µM | HOP-92 14.5 µM | MDA-MB-231 21.2 µM | SF-295 16.9 µM | HCC 2998 18.6 µM | RPMI-8226 7.31 µM | 786-0 18.9 µM | M14 24.2 µM | NCI-H460 20.2 µM | TK-10 18.3 µM | U-251 15.8 µM | SR 6.34 µM | A549 17 µM | RXF 393 20.6 µM | EKVX 16.3 µM

O=C1CN(c2ccccc2)Cc2nc(Cl)ccc2N1
inactive: BT-549 > 100 µM | IGROV-1 > 100 µM | OVCAR-4 > 100 µM | SNB-19 > 100 µM | Hs-578T 61.9 µM | HOP-92 57.4 µM | MDA-MB-231 > 100 µM | SF-295 > 100 µM | HCC 2998 > 100 µM | RPMI-8226 > 100 µM | 786-0 > 100 µM | M14 > 100 µM | NCI-H460 > 100 µM | TK-10 > 100 µM | U-251 > 100 µM | SR > 100 µM | SNB-75 40.4 µM | A549 > 100 µM | RXF 393 25.6 µM | EKVX > 100 µM

N=C1C(=N)c2ccccc2-c2ccccc21
active: BT-549 0.914 µM | MDA-MB-231 0.313 µM | RPMI-8226 0.959 µM | M14 1.05 µM | U-251 1.07 µM | SR 0.695 µM
inactive: IGROV-1 2 µM | OVCAR-4 1.45 µM | SNB-19 1.53 µM | Hs-578T 2.64 µM | HOP-92 2.49 µM | SF-295 1.62 µM | HCC 2998 1.96 µM | 786-0 2.09 µM | NCI-H460 1.38 µM | TK-10 1.65 µM | SNB-75 1.82 µM | A549 1.74 µM | RXF 393 1.82 µM | EKVX 1.9 µM
